Experimental data reported in US9969823B1, “Synthesis and polymerization of vinyl triazolium ionic liquids” (United States Department of Energy, priority 2011, dated 2018).
Where two headings read alike, the source gives them in different places.

Experiment: Solubility of ionic liquid monomers (IL) and their polymers (PIL) in solvents
Assay type: physicochemical
Settings: for solubility: 10 mg/ml, IL (monomer), first symbol; for solubility in water: IL monomers
[1] = organic solvent or mixture, ACN, read-out: Solubility (IL/PIL) ACN
[2] = organic solvent or mixture, Acetone, read-out: Solubility (IL/PIL) Acetone
[3] = organic solvent or mixture, DCM, read-out: Solubility (IL/PIL) DCM
[4] = organic solvent or mixture, DMF, read-out: Solubility (IL/PIL) DMF
[5] = organic solvent or mixture, DMSO, read-out: Solubility (IL/PIL) DMSO
[6] = organic solvent or mixture, Ethyl acetate, read-out: Solubility (IL/PIL) Ethyl acetate
[7] = organic solvent or mixture, Hexanes, read-out: Solubility (IL/PIL) Hexanes
[8] = organic solvent or mixture, MeOH, read-out: Solubility (IL/PIL) MeOH
[9] = water, H2O, read-out: Solubility (IL/PIL) H2O

Compound | solubility [1] [µg/mL] | solubility [2] [µg/mL] | solubility [3] [µg/mL] | solubility [4] [µg/mL] | solubility [5] [µg/mL] | solubility [6] [µg/mL] | solubility [7] [µg/mL] | solubility [8] [µg/mL] | solubility [9] [µg/mL] | solubility in water (water)
C=Cc1cn(Cc2ccccc2)n[n+]1C [BMVT Tf2N, 1-Benzyl-3-methyl-4-vinyl-triazolium bis(trifluoromethansulfonyl)amide] | > 10000 | > 10000 | > 10000 | > 10000 | > 10000 | > 10000 | < 10000 | > 10000 | < 10000 | –
C=Cc1cn(CCCCCCCCCC)n[n+]1C [DMVT, 1-Decyl-3-methyl-4-vinyl-triazolium bis(trifluoromethansulfonyl)amide] | > 10000 | > 10000 | < 10000 | > 10000 | > 10000 | > 10000 | < 10000 | > 10000 | < 10000 | –
C=Cc1cn(CCO)n[n+]1C [EtOHMVT, 2-(3-Methyl-4vinyl-triazolium-1-yl)ethanol bis(trifluoromethansulfonyl)amide] | > 10000 | > 10000 | > 10000 | > 10000 | > 10000 | > 10000 | < 10000 | > 10000 | > 10000 | soluble
C=Cc1cn(CCCCCC)n[n+]1C [HMVT, 1-Hexyl-3-methyl-4-vinyl-triazolium bis(trifluoromethansulfonyl)amide] | > 10000 | > 10000 | > 10000 | > 10000 | > 10000 | > 10000 | < 10000 | > 10000 | < 10000 | –
C=Cc1cn(-c2ccccc2)n[n+]1C [PMVT Tf2N, 1-Phenyl-3-methyl-4-vinyl-triazolium bis(trifluoromethansulfonyl)amide] | > 10000 | > 10000 | > 10000 | > 10000 | > 10000 | > 10000 | < 10000 | > 10000 | < 10000 | –
C=Cc1cn(CCOCCOCCOC)n[n+]1C [TEGMVT, 1-TEG-3-methyl-4-vinyl-triazolium bis(trifluoromethansulfonyl)amide] | > 10000 | > 10000 | > 10000 | > 10000 | > 10000 | > 10000 | < 10000 | > 10000 | > 10000 | soluble
